Source: patent publication US8710076B2, “2,5-disubstituted piperidine orexin receptor antagonists” (Merck Sharp & Dohme Corp., priority 2008, dated 2014)

molecular target: orexin-2 receptor (OX2R) (Homo sapiens (Human), UniProt O43614); assay: radioligand binding assay, membranes from CHO cells expressing OX2; settings: membranes prepared from CHO cells expressing OX2
Method: The utility of the compounds in accordance with the present invention as orexin receptor OX1R and/or OX2R antagonists may be readily determined without undue experimentation by methodology well known in the art, including the “FLIPR Ca^2+Flux Assay” (Okumura et al., Biochem. Biophys. Res. Comm. 280:976-981, 2001). In a typical experiment the OX1 and OX2 receptor antagonistic activity of the compounds of the present invention was determined in accordance with the following experimental method. For intracellular calcium measurements, Chinese hamster ovary (CHO) cells expressing the rat OX1 receptor or the human OX2 receptor, are grown in Iscove's modified DMEM containing 2 mM L-glutamine, […], 1% hypoxanthine-thymidine supplement, 100 U/ml penicillin, 100 ug/ml streptomycin and 10% heat-inactivated fetal calf serum (FCS). The cells are seeded at 20,000 cells/well into Becton-Dickinson black 384-well clear bottom sterile plates coated with poly-D-lysine. All reagents were from GIBCO-Invitrogen Corp. The seeded plates are incubated overnight at 37° C. and 5% CO2. Ala-6,12 human orexin-A as the agonist is prepared as a 1 mM stock solution in 1% bovine serum albumin (BSA) and diluted in assay buffer (HBSS containing 20 mM HEPES, 0.1% BSA and 2.5 mM probenecid, pH7.4) for use in the assay at a final concentration of 70 pM. Test compounds are prepared as 10 mM stock solution in DMSO, then diluted in 384-well plates, first in DMSO, then assay buffer. On the day of the assay, cells are washed 3 times with 100 ul assay buffer and then incubated for […] (37° C., 5% CO2) in 60 ul assay buffer containing 1 uM Fluo-4AM ester, 0.02% pluronic acid, and 1% BSA. The dye loading solution is then aspirated and cells are washed 3 times with 100 ul assay buffer. 30 ul of that same buffer is left in each well. Within the Fluorescent Imaging Plate Reader (FLIPR, Molecular Devices), test compounds are added to the plate in a volume of 25 ul, incubated for 5 min and finally 25 ul of agonist is added. Fluorescence is measured for each well at 1 second intervals for 5 minutes and the height of each fluorescence peak is compared to the height of the fluorescence peak induced by 70 pM Ala-6,12 orexin-A with buffer in place of antagonist. […] Alternatively, compound potency can be assessed by a radioligand binding assay (described in Bergman et. al. Bioorg. Med. Chem. Lett. 2008, 18, 1425-1430) in which the inhibition constant (Ki) is determined in membranes prepared from CHO cells expressing either the orexin-1 (OX1) or orexin-2 (OX2) receptor. The intrinsic orexin receptor antagonist activity of a compound which may be used in the present invention may be determined by these assays.

Sequence of orexin-2 receptor (OX2R) (O43614 whole entry): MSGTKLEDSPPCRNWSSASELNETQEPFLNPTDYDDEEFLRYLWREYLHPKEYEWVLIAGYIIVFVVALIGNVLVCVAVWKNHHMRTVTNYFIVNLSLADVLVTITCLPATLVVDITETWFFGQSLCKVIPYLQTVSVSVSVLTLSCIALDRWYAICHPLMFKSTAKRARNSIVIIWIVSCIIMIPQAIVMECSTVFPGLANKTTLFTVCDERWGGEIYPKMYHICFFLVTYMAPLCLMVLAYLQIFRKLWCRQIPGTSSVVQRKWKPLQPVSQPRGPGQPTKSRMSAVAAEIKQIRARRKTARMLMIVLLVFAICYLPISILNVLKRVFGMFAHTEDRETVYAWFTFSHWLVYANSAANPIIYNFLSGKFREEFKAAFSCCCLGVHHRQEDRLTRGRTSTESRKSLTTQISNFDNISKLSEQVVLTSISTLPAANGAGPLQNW

Q: `C[C@@H]1CC[C@@H](Oc2cccc3ocnc23)CN1C(=O)c1ccccc1-n1nccn1` (mixture of isomers) [1-1, (2R,5R)- and (2S,5S)-4-({6-methyl-1-[2-(2H-1,2,3-triazol-2-yl)benzoyl]piperidin-3-yl}oxy)-l,3-benzoxazole] was tested. Which Ki did it give?
A: Its Ki is 18.3 nM.

Q: Which Ki does the source give for `C[C@@H]1CC[C@@H](Oc2ccnc3c(F)cccc23)CN1C(=O)c1ccccc1-n1nccn1` [E-2] here?
A: Its Ki is 0.55 nM.

Q: Which Ki does the source give for `C[C@@H]1CC[C@@H](Oc2nccc3ccccc23)CN1C(=O)c1ccccc1-n1nccn1` [F-2, 1-({(2R,5R)-6-methyl-1-[2-(2H-1,2,3-triazol-2-yl)benzoyl]piperidin-3-yl}oxy)-isoquinoline] here?
A: Its Ki is 0.11 nM.

Q: With `Cc1ccc(-n2nccn2)c(C(=O)N2C[C@H](Nc3nccc4ccccc34)CC[C@H]2C)c1` [H-4, N-{(2R,5R)-6-methyl-1-[5-methyl-2-(2H-1,2,3-triazol-2-yl)benzoyl]piperidin-3-yl}isoquinolin-1-amine] as the compound, how does the Ki read?
A: The Ki was 0.56 nM.
